In patent US12097174B2, “Methods and agents that enhance myogenic progenitor cell engraftment” (President and Fellows of Harvard College, priority 2018, dated 2024):
“Also recorded” adds a separate entry of the source.

Key:
[1] = system: Zebrafish myogenic progenitor cells (ZeMPCs); test: Limiting dilution engraftment assay (ELDA): cells treated ex vivo, transplanted into adult zebrafish, imaged at 7 dpt; assay type: in vivo
Method: Donor cells were derived from embryos that contained a GFP cassette driven by the promoter for mylz2, a muscle-specific structural protein. Recipients were optically clear, immunocompromised adult prkdc−/− zebrafish. To perform a limiting dilution assay, three doses (n=100, 200, and 400 cells) were administered per treatment (n=10 engraftment events per treatment-dose combination). The estimated engrafting cell frequency was calculated using the Extreme Limiting Dilution Analysis (ELDA, Hu et. al. 2009), which provides the most likely estimate (MLE) of engrafting cell frequency.
Given that this group of 230 lipids is too many to be examined in mice, transplantation efficiency was instead examined via limit-dilution assays in 15 recipient zebrafish per compound after a brief (4 hour) ex vivo chemical exposure. Positive hits from this primary screening were rescreened in replicate transplantation experiments incorporating dose response testing.
Lipids are frequently found to enhance cell migration and homeostasis in blood and muscle tissue (Cencetti et al., 2014; Lahvic et al., 2018; Li et al., 2015; Oh et al., 2016), and so it was elected to screen mainly bioactive lipids in efforts to identify compounds that enhance ZeMPCs engraftment efficiency in vivo. Myogenic progenitor cells were treated for 4 hours with one of the 188 unique lipid compounds contained in the ICCB Known Bioactives Library. Compound-treated cells were then harvested and transplanted intramuscularly into both flanks of 5 different casper recipient fish, with transplants performed at each of 3 transplanted cell doses (25, 75 or 150 cells). In these studies, recipient fish received split-dose irradiation of 15 Gy at 2 days and 1 day prior to transplantation to suppress any immune responses to the transplanted cells. Engraftment efficiency was measured by imaging casper recipients at 7 dpt (FIG. 18A). […] For this secondary screening approach, cells were transplanted into prkdc^D3612ls casper fish, which are deficient in mature T and B cells, and assayed engraftment efficiency in the recipient fish 7 days post-transplantation. Two compounds were identified, lysophosphatidic acid (LPA) and niflumic acid (NFA), which increased ZeMPC engraftment efficiency in both of these assay systems (FIG. 12B).
Lipids from the ICCB Known Bioactives Library (enzolifesciences.com/BML-2840/iccb-known-bioactives-library) were diluted at a 1:100 ratio in transplantation media (zESC medium without bFGF and FBS) and added to prewashed in vitro expanded muscle cells. NFA (Cayman and Santa Cruz Biotechnology) and LPA (Cayman and Santa Cruz Biotechnology) were used for the secondary confirmation screening experiments. […] 4- to 8-month-old casper recipients received split-dose irradiation of 15 Gy each, either 2 days or 1 day before transplantation. For LDA screening, cells were transplanted into each side of 5 pre-irradiated casper recipient fish or 5 non-irradiated prkdc-mutant recipient zebrafish. At 7 dpt, the recipients were anaesthetized using a previously described method (Dang et al., 2016) and imaged using a fluorescent stereo microscope (Leica M165 FC). Successful engraftment was defined as the presence of GFP+ fibers. Variation in different experiments is caused by inherent variability in the in vitro ZeMPC derivation procedure, which results in differences in engrafting cell frequency across different derivation attempts. To mitigate the impact of such experimental variation on screening results, only LDA results for cells derived from the same cultures were compared. Comparison to a vehicle-treated experimental control was included in every transplantation experiment. Next, the chemical treated cell potency and vehicle-treated cell potency was measured using the Extreme Limiting Dilution Analysis (ELDA) software (Hu and Smyth, 2009). The ratio of the treated cell potency and vehicle-treated cell potency determine the engraftment efficiency fold increase value.

C2C12 cells = test: Calcium imaging in Fura-2, AM treated C2C12 cells (single-cell imaging); assay type: cell-based, mouse; conditions: 10 μM NFA, 5 μM LPA; 10-20 seconds after loading
Method: Fura-2, AM treated C2C12 cells were exposed to 10 μM NFA, 5 μM LPA or DMSO as vehicle control to visualize the effect on intracellular calcium ion concentration using single-cell imaging. […] Scale bar 50 μm.
(§1) The ZeMPCs and C2C12 cells were incubated with Fura-2, AM (Thermo Fisher Sci F1225), a cell permeant fluorescent calcium ion indicator, for 45 minutes at 28.5° C. and 37° C., respectively, followed by imaging with Celldiscoverer7 Microscope (Zeiss). 20 seconds after imaging initiation the treatment was added to the cells and continued for a total of 2-3 minutes.

ZeMPCs = test: Calcium imaging in Fura-2, AM treated ZeMPCs (single-cell imaging); assay type: cell-based, zebrafish; conditions: 10 μM NFA, 5 μM LPA, 10 μM ionomycin; 10-20 seconds after loading
Method: Fura-2, AM treated ZeMPCs were exposed to 10 μM NFA, 5 μM LPA, 10 μM lonomycin (as a positive control) and DMSO (as vehicle control) to visualize their effect on intracellular calcium ion concentration using single-cell imaging. […] Scale bar 50 μm.
as §1

Compound	engraftment frequency ([1]; concurrent injection of donor cells with 10 uM MFA)	estimated engrafting cell frequency / engraftment ([1]; donor cells treated 2 hours with 10 uM MFA before transplantation, vs vehicle, p=0.0367)	engraftment efficiency of treated ZeMPCs ([1]; prkdc-mutant zebrafish, vs vehicle-treated controls)	intracellular calcium ion concentration (C2C12 cells)	intracellular calcium ion concentration (ZeMPCs)
Cc1ccc(Cl)c(Nc2ccccc2C(=O)O)c1Cl [MFA, meclofenamic acid]	not sufficient to increase engraftment frequency	increase the engraftment capacity; also recorded: optimally increase engraftment; also recorded: higher	–	–	–
C[C@H](CCC(=O)O)C[C@H](C)C[C@H](C)C(=O)/C=C(\O)[C@H](C)C[C@H](C)C/C=C/[C@@H](C)[C@@H](O)[C@@H](C)[C@@H](O)C[C@@H]1CC[C@@](C)([C@H]2CC[C@@](C)([C@@H](C)O)O2)O1 [ionomycin]	–	–	increased the engraftment efficiency	increase	increase
